Data: US4260682A, “High sensitivity assays for angiotensin converting enzyme” (priority 1979, dated 1981)
Peptide text beside a SMILES is read from it. * marks the point of attachment. Bz = O=C(c1ccccc1)*

Tests used:
ACE [1] = assay: Sulfate and chloride effects on ACE catalysed hydrolysis (general description); type: biochemical
Excerpt: An assay for ACE, using HipHisLeu as substrate, is herewith described. The assay is more sensitive than any heretofore disclosed using HipHisLeu as substrate. Maximum sensitivity is achieved by the inclusion of sulfate ions, preferably as sodium sulfate, in the reaction mixture. When 0.1 M NaCl is present in the reaction mixture, sulfate ions are stimulatory from 0.1 M to at least 1.1 M. Maximum stimulation occurs in the range from 0.75 M to 1.1 M Na2 SO4.
(§1) An even more sensitive assay for ACE activity has been developed using the novel compound ^3 H-benzoylPheAlaPro as substrate. This new substrate can be used to assay ACE in human urine in incubations as short as 15 minutes. The response of this substrate to ions is strikingly different from the response of HipHisLeu. […] This difficulty has been solved by the proper choice of extracting solvent. While a variety of organic solvents may be suitable for the extraction step, it is preferred to employ toluene. Approximately 88% of ^3 H-benzoylPhe enters the toluene phase while only 6% of the unhydrolyzed substrate enters the toluene phase, when toluene and the acidified reaction mixture are in approximately equal volumes at room temperatures.
(§2) The enzyme is active over a broad pH range with a maximum around pH 8.0, but is at least about 50% active in the range pH 7.0-pH 8.8, for both HipHisLeu and benzoylPheAlaPro. Although the enzyme is active in a variety of buffer systems known in the art, it is preferred for convenience, when using benzoylPheAlaPro as substrate, to conduct the assays in 0.05 M Hepes buffer, pH 8.0 containing 0.15 M sodium chloride. Detailed protocols for carrying out the assay are given in the examples. […] The preferred concentration range is 1×10^-9 M to 7×10^- 5 M.

[2] = system: enzyme isolated from hog lung (ACE); settings: cited from earlier work
ACE from rabbit lung = settings: HipHisLeu as substrate; cited from earlier work
[3] = Extraction from the acidified reaction mixture into organic solvent; type: physicochemical; settings: for fraction entering the toluene phase: toluene and acidified reaction mixture in approximately equal volumes, room temperature
Procedure: as §1

Guinea pig urinary ACE = molecular target: T1, Guinea pig urinary ACE (Cavia porcellus, UniProt H0UWL7); assay: Sulfate and chloride effects on ACE catalysed substrate hydrolysis; type: biochemical; settings: 0.05 Hepes, pH 8.0, 0.15M HCl
T1 sequence (H0UWL7 33-1302): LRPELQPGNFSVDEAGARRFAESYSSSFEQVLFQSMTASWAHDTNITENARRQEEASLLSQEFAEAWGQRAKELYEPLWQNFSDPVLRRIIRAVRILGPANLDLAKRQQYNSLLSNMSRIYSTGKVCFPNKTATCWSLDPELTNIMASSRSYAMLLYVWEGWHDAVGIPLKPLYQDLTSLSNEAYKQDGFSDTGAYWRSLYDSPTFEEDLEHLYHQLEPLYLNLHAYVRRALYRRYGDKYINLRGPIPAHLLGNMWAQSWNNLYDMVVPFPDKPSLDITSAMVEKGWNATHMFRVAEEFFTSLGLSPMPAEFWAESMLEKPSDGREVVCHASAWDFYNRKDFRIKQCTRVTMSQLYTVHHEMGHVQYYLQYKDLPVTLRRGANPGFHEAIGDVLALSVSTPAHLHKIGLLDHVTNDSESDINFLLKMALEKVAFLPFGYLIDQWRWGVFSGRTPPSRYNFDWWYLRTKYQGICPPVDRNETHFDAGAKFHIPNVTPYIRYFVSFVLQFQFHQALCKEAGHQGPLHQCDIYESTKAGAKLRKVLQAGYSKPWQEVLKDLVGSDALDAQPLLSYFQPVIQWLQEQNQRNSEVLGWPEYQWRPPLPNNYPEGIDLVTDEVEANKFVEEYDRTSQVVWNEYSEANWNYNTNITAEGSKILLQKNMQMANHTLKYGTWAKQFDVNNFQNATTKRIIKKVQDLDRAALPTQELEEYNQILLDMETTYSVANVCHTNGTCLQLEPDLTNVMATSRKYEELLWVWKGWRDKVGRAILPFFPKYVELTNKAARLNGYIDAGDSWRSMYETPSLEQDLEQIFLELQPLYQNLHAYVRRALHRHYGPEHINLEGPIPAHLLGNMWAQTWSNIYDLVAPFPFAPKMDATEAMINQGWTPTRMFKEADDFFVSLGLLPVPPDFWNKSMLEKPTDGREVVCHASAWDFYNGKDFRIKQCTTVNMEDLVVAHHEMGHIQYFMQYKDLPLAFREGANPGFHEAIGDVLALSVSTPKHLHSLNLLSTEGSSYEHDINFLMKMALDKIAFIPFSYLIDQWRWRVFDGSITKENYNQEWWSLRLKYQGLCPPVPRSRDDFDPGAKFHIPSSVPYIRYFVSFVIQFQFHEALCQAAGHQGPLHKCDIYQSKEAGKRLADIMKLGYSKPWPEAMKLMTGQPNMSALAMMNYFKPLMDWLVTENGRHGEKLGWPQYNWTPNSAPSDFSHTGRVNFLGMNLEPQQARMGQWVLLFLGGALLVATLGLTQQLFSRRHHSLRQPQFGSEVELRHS

ACE [4] = molecular target: ACE (Homo sapiens, UniProt P12821); assay: Comparison of sensitivity of ACE radioassays; type: biochemical
Excerpt: A comparison of the sensitivity of the disclosed assay methods with each other and with prior art assays may be made by considering assays which depend upon measuring the radioactivity of the remnant reaction product. A prior art assay of this type, using ^3 H-HipGlyGly as substrate has been described (Ryan and Chung, supra). Of the two assays disclosed herein, the sulfate stimulated hydrolysis of ^3 H-HipHisLeu is approximately 20 times more sensitive, and the ^3 H-benzoylPheAlaPro assay is about 10 times more sensitive still. The latter is therefore approximately 200 times more sensitive than the assay using ^3 H-HipGlyGly.

Guinea pig serum ACE = molecular target: T2, Guinea pig serum ACE (Cavia porcellus, UniProt H0UWL7); assay: Kinetics of benzoyl-Phe-Ala-Pro hydrolysis; settings: for V (reaction velocity): 37° C., serum 1:1000
T2 sequence (H0UWL7 33-1234): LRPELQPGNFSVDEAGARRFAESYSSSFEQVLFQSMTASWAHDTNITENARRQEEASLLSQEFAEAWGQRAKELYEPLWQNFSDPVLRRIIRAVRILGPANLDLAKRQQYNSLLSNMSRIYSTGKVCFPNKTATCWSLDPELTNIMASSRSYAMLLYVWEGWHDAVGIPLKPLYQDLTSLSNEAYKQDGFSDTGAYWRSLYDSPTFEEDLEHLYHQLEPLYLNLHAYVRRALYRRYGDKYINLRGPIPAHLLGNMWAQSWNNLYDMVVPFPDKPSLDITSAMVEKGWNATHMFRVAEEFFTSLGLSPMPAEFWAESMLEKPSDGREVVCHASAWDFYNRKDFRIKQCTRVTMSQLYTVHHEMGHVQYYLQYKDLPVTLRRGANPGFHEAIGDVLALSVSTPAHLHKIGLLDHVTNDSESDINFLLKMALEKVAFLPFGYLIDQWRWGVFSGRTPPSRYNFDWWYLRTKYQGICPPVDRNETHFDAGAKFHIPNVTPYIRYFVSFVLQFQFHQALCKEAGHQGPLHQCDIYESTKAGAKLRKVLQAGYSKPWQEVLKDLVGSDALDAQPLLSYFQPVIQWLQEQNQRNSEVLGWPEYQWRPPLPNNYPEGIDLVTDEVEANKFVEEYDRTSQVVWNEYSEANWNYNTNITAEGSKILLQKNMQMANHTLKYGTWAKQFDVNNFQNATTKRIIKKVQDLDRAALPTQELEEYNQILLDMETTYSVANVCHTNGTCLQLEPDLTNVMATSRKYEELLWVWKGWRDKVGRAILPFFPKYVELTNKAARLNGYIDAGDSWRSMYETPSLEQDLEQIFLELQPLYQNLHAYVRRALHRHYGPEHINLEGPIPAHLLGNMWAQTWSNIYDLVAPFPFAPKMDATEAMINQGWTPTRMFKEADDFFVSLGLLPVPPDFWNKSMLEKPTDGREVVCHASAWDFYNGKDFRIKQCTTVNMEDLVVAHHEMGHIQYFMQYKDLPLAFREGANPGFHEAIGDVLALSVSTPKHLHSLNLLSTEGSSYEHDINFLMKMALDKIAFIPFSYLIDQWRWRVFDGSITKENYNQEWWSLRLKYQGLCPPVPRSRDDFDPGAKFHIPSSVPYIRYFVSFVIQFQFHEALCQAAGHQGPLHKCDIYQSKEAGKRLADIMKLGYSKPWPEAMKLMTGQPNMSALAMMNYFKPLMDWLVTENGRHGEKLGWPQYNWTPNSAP
Procedure: Kinetics of Benzoyl-Phe-Ala-Pro Hydrolysis
The apparent Km for the ACE catalyzed hydrolysis of benzoyl-Phe-Ala-Pro was measured in the following manner. […] Guinea pig serum was diluted 1:1000 to provide the enzyme. A mixture of 50 μl diluted serum and 50 μl of substrate, diluted in the reaction buffer to provide the appropriate substrate concentration for each experiment, was incubated at 37° C. for 10 minutes. At the end of the incubation, 1.0 ml of 0.1 M HCl was added to stop the reaction. The reaction mixture was then extracted with 1.0 ml toluene, and a 0.5 ml aliquot of the toluene phase was counted in a scintillation counter.

ACE [5] = assay: pH dependence of ACE activity; type: biochemical
Excerpt: as §2

ACE [6] = settings: cited from earlier work
[7] = sulfate ion 0.6 M, 0.1 M chloride, pH 8

Sequence of ACE (Homo sapiens, UniProt P12821) (P12821 30-1306, species assumed): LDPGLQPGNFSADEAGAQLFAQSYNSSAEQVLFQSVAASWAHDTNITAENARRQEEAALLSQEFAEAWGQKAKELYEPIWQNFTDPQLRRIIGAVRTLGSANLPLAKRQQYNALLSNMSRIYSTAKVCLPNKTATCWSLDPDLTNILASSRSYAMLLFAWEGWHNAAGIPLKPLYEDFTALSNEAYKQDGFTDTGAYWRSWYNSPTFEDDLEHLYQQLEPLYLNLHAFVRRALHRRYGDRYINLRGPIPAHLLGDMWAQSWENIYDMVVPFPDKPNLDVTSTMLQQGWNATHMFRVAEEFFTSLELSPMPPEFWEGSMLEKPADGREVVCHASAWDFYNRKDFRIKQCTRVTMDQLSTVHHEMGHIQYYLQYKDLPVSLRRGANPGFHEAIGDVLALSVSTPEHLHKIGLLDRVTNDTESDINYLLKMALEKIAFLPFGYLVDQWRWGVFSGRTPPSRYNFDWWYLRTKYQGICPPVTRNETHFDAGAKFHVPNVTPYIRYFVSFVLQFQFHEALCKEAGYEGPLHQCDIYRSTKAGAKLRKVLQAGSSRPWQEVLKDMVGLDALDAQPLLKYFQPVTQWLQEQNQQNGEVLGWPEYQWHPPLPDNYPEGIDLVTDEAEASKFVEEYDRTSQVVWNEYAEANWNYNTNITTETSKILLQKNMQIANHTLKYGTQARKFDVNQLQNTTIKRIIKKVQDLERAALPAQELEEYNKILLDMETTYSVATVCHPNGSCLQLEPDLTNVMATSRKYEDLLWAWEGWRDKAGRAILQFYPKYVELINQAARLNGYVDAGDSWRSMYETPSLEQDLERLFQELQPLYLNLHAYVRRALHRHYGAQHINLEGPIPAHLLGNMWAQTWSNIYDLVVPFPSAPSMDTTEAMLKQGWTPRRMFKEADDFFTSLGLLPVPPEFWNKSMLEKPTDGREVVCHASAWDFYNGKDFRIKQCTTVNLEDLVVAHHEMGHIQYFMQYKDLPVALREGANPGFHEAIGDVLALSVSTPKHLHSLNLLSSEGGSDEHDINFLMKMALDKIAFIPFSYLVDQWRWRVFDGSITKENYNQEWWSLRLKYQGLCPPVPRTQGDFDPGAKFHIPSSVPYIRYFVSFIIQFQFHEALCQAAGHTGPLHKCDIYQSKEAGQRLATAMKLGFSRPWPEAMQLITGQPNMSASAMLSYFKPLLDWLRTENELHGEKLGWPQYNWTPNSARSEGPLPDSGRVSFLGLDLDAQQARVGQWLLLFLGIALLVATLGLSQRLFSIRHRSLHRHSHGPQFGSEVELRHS

O=C(O)CNC(=O)CNC(=O)CNC(=O)c1ccccc1 [HipGlyGly] (Bz-Gly-Gly-Gly-OH)
dependence of hydrolysis on added chloride (ACE [1]; sulfate present): remains dependent upon the presence of added chloride for activity
hydrolysis in the absence of NaCl ([2]; Na2 SO4 0.001 M to 0.6 M): no hydrolysis
decrease of Km [2, 7]: about 15%
increase of Vmax [2, 7]: about 5 fold

[Cl-].[Cl-].[Mg+2] [MgCl2]
ability to meet the chloride requirement (ACE from rabbit lung): could be met

O=S(=O)([O-])[O-].[Na+].[Na+] [Na2 SO4, sodium sulfate]
reaction rate vs. buffer containing 0.1 M NaCl and lacking Na2 SO4 (ACE [1]; 0.9 M to 1.2 M Na2 SO4, no added NaCl, 0.05 M Hepes, pH 8.0, HipHisLeu): faster
stimulation by sodium sulfate (ACE [1]; ^3 H-benzoylPheAlaPro as substrate): not stimulatory
ability to meet the chloride requirement (ACE from rabbit lung): not

[3H]c1ccc(C(=O)N[C@@H](Cc2ccccc2)C(=O)O)cc1 [^3 H-benzoylPhe]
fraction entering the toluene phase [3]: Approximately 88%

C[C@H](NC(=O)[C@H](Cc1ccccc1)NC(=O)c1ccccc1)C(=O)N1CCC[C@H]1C(=O)O [benzoylPheAlaPro, benzoyl-Phe-Ala-Pro] (Bz-Phe-Ala-Pro-OH)
Reaction Velocity, Per Cent of Substrate Hydrolyzed in 10 minutes (Guinea pig urinary ACE; Na2 SO4 0 M): 4.4 Per Cent
Reaction Velocity, Per Cent of Substrate Hydrolyzed in 10 minutes (Guinea pig urinary ACE; Na2 SO4 0.1 M): 5.0 Per Cent
Reaction Velocity, Per Cent of Substrate Hydrolyzed in 10 minutes (Guinea pig urinary ACE; Na2 SO4 0.2 M): 4.45 Per Cent
Reaction Velocity, Per Cent of Substrate Hydrolyzed in 10 minutes (Guinea pig urinary ACE; Na2 SO4 0.3 M): 4.85 Per Cent
Reaction Velocity, Per Cent of Substrate Hydrolyzed in 10 minutes (Guinea pig urinary ACE; Na2 SO4 0.5 M): 5.6 Per Cent
sensitivity relative to the sulfate-stimulated HipHisLeu assay (ACE [4]): ten to twenty
1/V (Guinea pig serum ACE; BenzPheAlaPro 1.0 μM): 1.50 pmole^-1 · min .multi
V (reaction velocity) (Guinea pig serum ACE; BenzPheAlaPro 1.0 μM, 0.05 M Hepes, pH 8.0, 0.15 M NaCl): 0.67 pmol/min/mL
1/V (Guinea pig serum ACE; BenzPheAlaPro 5.0 μM): 0.48 pmole^-1 · min .multi
V (reaction velocity) (Guinea pig serum ACE; BenzPheAlaPro 5.0 μM, 0.05 M Hepes, pH 8.0, 0.15 M NaCl): 2.08 pmol/min/mL
1/V (Guinea pig serum ACE; BenzPheAlaPro 10.0 μM): 0.24 pmole^-1 · min .multi
V (reaction velocity) (Guinea pig serum ACE; BenzPheAlaPro 10.0 μM, 0.05 M Hepes, pH 8.0, 0.15 M NaCl): 4.17 pmol/min/mL
1/V (Guinea pig serum ACE; BenzPheAlaPro 66.7 μM): 0.11 pmole^-1 · min .multi
V (reaction velocity) (Guinea pig serum ACE; BenzPheAlaPro 66.7 μM, 0.05 M Hepes, pH 8.0, 0.15 M NaCl): 9.09 pmol/min/mL
sensitivity of Km to the presence of sulfate (Guinea pig serum ACE; sulfate present): relatively insensitive to the presence of sulfate
pH of maximum activity (ACE [5]): ~8.0 pH
activity of enzyme (relative to maximum) (ACE [5]; range pH 7.0-pH 8.8): at least 50%

NC(N)=NCCC[C@H](NC(=O)[C@H](Cc1ccccc1)NC(=O)[C@@H]1CCCN1C(=O)[C@H](CO)NC(=O)[C@H](Cc1ccccc1)NC(=O)CNC(=O)[C@@H]1CCCN1C(=O)[C@@H]1CCCN1C(=O)[C@@H](N)CCCN=C(N)N)C(=O)O [bradykinin, ArgProProGlyPheSerProPheArg] (H-RPPGFSPFR-OH)
competitive substrate of ACE (ACE [6]): competitive substrates

^3 H-benzoylPheAlaPro
hydrolysis in the absence of any added salt (ACE [1]; 0.05 M Hepes, pH 8.0): ACE will hydrolyze
sensitivity relative to the sulfate-stimulated HipHisLeu assay (ACE [4]): about 10 times
sensitivity relative to the assay using ^3 H-HipGlyGly (ACE [4]; radioactivity of remnant product, HipHisLeu assay sulfate stimulated): approximately 200 times
Km (Guinea pig serum ACE; read-out: apparent Km, 0.05 M Hepes, pH 8.0, 0.15 M NaCl, Lineweaver and Burke plot): 14 µM
extraction into ethyl acetate ([3]; acidified with dilute hydrochloric acid): extracted almost quantitatively into ethyl acetate
fraction entering the toluene phase [3]: 6%
